Columns and labels:
[1] = system: kultivierten Rattenhepatocyten; test: Incorporation of 14C-labelled acetate into the non-saponifiable neutral lipid fraction (cholesterol de novo synthesis); type: cell-based, Ratten
Protocol: Erfindungsgemäß wurde überraschenderweise an Hand von Messungen des Einbaus von ^14[…] in die Fraktion der nicht-verseifbaren neutralen Lipide von kultivierten Rattenhepatocyten nachgewiesen, daß Luteolin, seine Derivate und […] Verbindungen konzentrationsabhängig die Neusynthese von Cholesterin in […]. Bei Verwendung eines Luteolin-7-0-glucosid-[…] Kulturmedium in einer Konzentration zwischen 0,02 und 0,1 mg/ml […] (Plateau) von ca. 20% ein, ohne daß zytotoxische Wirkungen nachweisbar wären. Bei höheren Konzentrationen (bis 1 mg/ml) […] noch […] auf (maximal 85 %), ohne […] von 2 mg/ml einsetzen. Durch Ersatz des ^14[…] durch […] vor der Bildung von Mevalonat lag; Hemmwirkungen, die zu einer Verschiebung des Musters der Vorläufersterine des Cholesterin […]. Die Aktivität der HMG-CoA-Reduktase, des Schlüsselenzyms der Cholesterinsynthese, wird somit indirekt über […] oder […] des Enzyms gedrosselt.

[2] = rabbits, blood lipids raised by cholesterol diet (200 mg Cholesterin pro kg Körpergewicht über 60 Tage); Chem. Abstr. 76; cited from earlier work

O=C(/C=C/c1ccc(O)c(O)c1)O[C@@H]1C[C@@](OC(=O)/C=C/c2ccc(O)c(O)c2)(C(=O)O)C[C@@H](O)[C@@H]1O [Cynarin, 1,5-Di-Caffeoyl-D-Chinasäure, reference compound]
Hemmung der Cholesterinneusynthese ([1]; concentrations that are maximally achievable in artichoke leaf extract preparations): keinerlei Hemmung

Luteolin-7-Glycosid
lipidsenkende Wirkung im Tierversuch [2]: lipidsenkende Wirkung

O=c1cc(-c2ccc(O)c(O)c2)oc2cc(O)cc(O)c12 [Luteolin, 31,41,5-Tetrahydroxyflavon]
lipidsenkende Wirkung im Tierversuch [2]: lipidsenkende Wirkung
Neusynthese von Cholesterin in den Leberzellen ([1]; 14C-acetate incorporation, cultured rat hepatocytes): konzentrationsabhängig die Neusynthese von Cholesterin in den Leberzellen vermindern

— patent EP0807435A2, “Indirect HMG-CoA-reductase inhibitor” (Sertürner Arzneimittel GmbH, priority 1996, dated 1997)
